# Test results reported in patent publication US9242984B2, “Pyrazolyl derivatives as Syk inhibitors” (Merck Sharp & Dohme Corp., priority 2012, dated 2016).
# Read-outs that look alike come from different tables or passages of the source.
# Molecular target: T1, recombinant human Syk (GST-hSyk fusion protein) (Homo sapiens, UniProt P43405)
# T1 construct: purchased Carna Biosciences 08-176
# Experiment: Homogeneous Time-Resolved Fluorescence (HTRF) assay for the recombinant human Syk enzyme
# Type: biochemical
# Settings: 10-dose titration, 25 μM ATP
# Experimental: Syk inhibition may be determined using the following assay protocol:
# Homogeneous Time-Resolved Fluorescence (HTRF) Assay for the Recombinant Human Syk Enzyme:
# A recombinant GST-hSyk fusion protein was used to measure potency of compounds to inhibit human Syk activity. The recombinant human GST-Syk (Carna Biosciences #08-176) (5 pM final concentration) was incubated with various concentrations of the inhibitor diluted in DMSO (0.1% final concentration) for 10 minutes at room temperature in 15 mM Tris-HCl (pH 7.5), 0.01% tween 20, 2 mM DTT in 384 well plate format. To initiate the reaction the biotinylated substrate peptide (250 nM final concentration) that contains the phosphorylation site for Syk was added with magnesium (5 mM final concentration) and ATP (25 μM final concentration). Final volume of the reaction was 10 μL. Phosphorylation of the peptide was allowed to proceed for 45 minutes at room temperature. To quench the reaction and detect the phosphorylated product, 2 nM of a Europium-anti-phosphotyrosine antibody (Perkin Elmer #AD0161) and 70 nM SA-APC (Perkin-Elmer #CR130-100) were added together in 15 mM Tris pH 7.5, 40 mM EDTA, 0.01% tween 20. Final volume of the quenching solution was 10 μL. The resulting HTRF signal was measured after 30 minutes on an EnVision (Perkin-Elmer) reader using a time-resolved fluorescence protocol. IC50 was determined following 10-dose titration (10 μM to 0.508 nM) and four parameter logistic curve fitting using the Merck Assay Data Analyzer. The rhSyk activity (IC50) is expressed as +++(100 nM or less), ++(between 100 and 1000 nM), +(between 1 and 10 μM).
# [1] = IC50 class, read-out: rhSYK Activity
Compound,IC50 [1] [µM],IC50 (read-out: rhSYK IC50) [µM]
"Cc1cc(Nc2nccc(C(F)(F)F)n2)cc(-c2cnn(CC3OC(=O)NC3C(C)C)c2)c1 (single isomer, unassigned) [Example 23.6, 4-(1-methylethyl)-5-{[4-(3-methyl-5-{[4-(trifluoromethyl)pyrimidin-2-yl]amino}phenyl)-1H-pyrazol-1-yl]methyl}-1,3-oxazolidin-2-one]",≤ 0.1,–
"Cc1cc(Nc2nccc(C)n2)cc(-c2cnn(CC3OC(=O)NC3C)c2)c1 (single isomer, unassigned) [Example 23.7, 4-methyl-5-[(4-{3-methyl-5-[(4-methylpyrimidin-2-yl)amino]phenyl}-1H-pyrazol-1-yl)methyl]-1,3-oxazolidin-2-one]",≤ 0.1,–
"Cc1cc(Nc2nccc(C)n2)cc(-c2cnn(CC3OC(=O)NC3C)c2)c1 (single isomer, unassigned) [Example 23.8, 4-methyl-5-[(4-{3-methyl-5-[(4-methylpyrimidin-2-yl)amino]phenyl}-1H-pyrazol-1-yl)methyl]-1,3-oxazolidin-2-one]",≤ 0.1,–
"Cc1cc(Nc2nccc(C(F)F)n2)cc(-c2cnn(CC3OC(=O)NC3C)c2)c1 (single isomer, unassigned) [Example 23.9, 5-{[4-(3-{[4-(difluoromethyl)pyrimidin-2-yl]amino}-5-methylphenyl)-1H-pyrazol-1-yl]methyl}-4-methyl-1,3-oxazolidin-2-one]",≤ 0.1,–
"Cc1cc(Nc2nccc(C(F)F)n2)cc(-c2cnn(CC3OC(=O)NC3C)c2)c1 (single isomer, unassigned) [Example 23.10, 5-{[4-(3-{[4-(difluoromethyl)pyrimidin-2-yl]amino}-5-methylphenyl)-1H-pyrazol-1-yl]methyl}-4-methyl-1,3-oxazolidin-2-one]",≤ 0.1,–
"Cc1cc(Nc2nccc(C(C)(F)F)n2)cc(-c2cnn(CC3OC(=O)NC3C)c2)c1 (single isomer, unassigned) [Example 23.12, 5-{[4-(3-{[4-(1,1-difluoroethyl)pyrimidin-2-yl]amino}-5-methylphenyl)-1H-pyrazol-1-yl]methyl}-4-methyl-1,3-oxazolidin-2-one]",≤ 0.1,–
"Cc1cc(Nc2nccc(C(F)F)n2)cc(-c2cnn(CC3OC(=O)NC3C)c2)c1 (single isomer, unassigned) [Example 23.13, 5-{[4-(3-{[4-(difluoromethyl)pyrimidin-2-yl]amino}-5-methylphenyl)-1H-pyrazol-1-yl]methyl}-4-methyl-1,3-oxazolidin-2-one]",≤ 0.1,–
"Cc1cc(Nc2nccc(C(F)F)n2)cc(-c2cnn(CC3OC(=O)NC3C)c2)c1 (single isomer, unassigned) [Example 23.14, 5-{[4-(3-{[4-(difluoromethyl)pyrimidin-2-yl]amino}-5-methylphenyl)-1H-pyrazol-1-yl]methyl}-4-methyl-1,3-oxazolidin-2-one]",≤ 0.1,–
"Cc1cc(Nc2nccc(C)n2)cc(-c2cnn(CC3OC(=O)NC3C(C)C)c2)c1 (single isomer, unassigned) [Example 23.15, 4-(1-methylethyl)-5-[(4-{3-methyl-5-[(4-methylpyrimidin-2-yl)amino]phenyl}-1H-pyrazol-1-yl)methyl]-1,3-oxazolidin-2-one]",≤ 0.1,–
"Cc1cc(Nc2nccc(C)n2)cc(-c2cnn(CC3OC(=O)NC3C(C)C)c2)c1 (single isomer, unassigned) [Example 23.16, 4-(1-methylethyl)-5-[(4-{3-methyl-5-[(4-methylpyrimidin-2-yl)amino]phenyl}-1H-pyrazol-1-yl)methyl]-1,3-oxazolidin-2-one]",≤ 0.1,–
"Cc1cc(Nc2nccc(C(F)F)n2)cc(-c2cnn(CC3OC(=O)NC3C3CC3)c2)c1 (single isomer, unassigned) [Example 23.18, 4-cyclopropyl-5-{[4-(3-{[4-(difluoromethyl)pyrimidin-2-yl]amino}-5-methylphenyl)-1H-pyrazol-1-yl]methyl}-1,3-oxazolidin-2-one]",≤ 0.1,–
"Cc1cc(Nc2nccc(C(F)F)n2)cc(-c2cnn(CC3OC(=O)NC3C3CC3)c2)c1 (single isomer, unassigned) [Example 23.19, 4-cyclopropyl-5-{[4-(3-{[4-(difluoromethyl)pyrimidin-2-yl]amino}-5-methylphenyl)-1H-pyrazol-1-yl]methyl}-1,3-oxazolidin-2-one]",≤ 0.1,–
"Cc1cc(Nc2ncc(F)c(C(F)F)n2)cc(-c2cnn(CC3OC(=O)NC3C)c2)c1 (single isomer, unassigned) [Example 23.20, 5-{[4-(3-{[4-(difluoromethyl)-5-fluoropyrimidin-2-yl]amino}-5-methylphenyl)-1H-pyrazol-1-yl]methyl}-4-methyl-1,3-oxazolidin-2-one]",≤ 0.1,–

# Continued, values first:
IC50 [1] [µM],IC50 (read-out: rhSYK IC50) [µM],Compound
≤ 0.1,–,"Cc1cc(Nc2nccc(C(F)(F)F)n2)cc(-c2cnn(CC(C)(O)CO)c2)c1 (single isomer, unassigned) [Example 21.2, 2-Methyl-3-(4-(3-methyl-5-((4-(trifluoromethyl)pyrimidin-2-yl)amino)phenyl)-1H-pyrazol-1-yl)propane-1,2-diol]"
≤ 0.1,–,"Cc1cc(Nc2nccc(C(F)(F)F)n2)cc(-c2cnn([C@@H](C)[C@@](C)(O)CO)c2)c1 (single isomer, unassigned) [Example 21.8, 2-methyl-3-[4-(3-methyl-5-{[4-(trifluoromethyl)pyrimidin-2-yl]amino}phenyl)-1H-pyrazol-1-yl]butane-1,2-diol]"
≤ 0.1,–,"Cc1cc(Nc2nccc(C(F)(F)F)n2)cc(-c2cnn(C(C)C(C)(O)CO)c2)c1 (single isomer, unassigned) [Example 21.9, 2-methyl-3-[4-(3-methyl-5-{[4-(trifluoromethyl)pyrimidin-2-yl]amino}phenyl)-1H-pyrazol-1-yl]butane-1,2-diol]"
≤ 0.1,–,"Cc1cc(Nc2nccc(C(F)(F)F)n2)cc(-c2cnn([C@@H](C)[C@](C)(O)CO)c2)c1 (single isomer, unassigned) [Example 21.10, 2-methyl-3-[4-(3-methyl-5-{[4-(trifluoromethyl)pyrimidin-2-yl]amino}phenyl)-1H-pyrazol-1-yl]butane-1,2-diol]"
≤ 0.1,–,"Cc1cc(Nc2nccc(C(F)(F)F)n2)cc(-c2cnn(C(C)C(C)(O)CO)c2)c1 (single isomer, unassigned) [Example 21.11, 2-methyl-3-[4-(3-methyl-5-{[4-(trifluoromethyl)pyrimidin-2-yl]amino}phenyl)-1H-pyrazol-1-yl]butane-1,2-diol]"
≤ 0.1,0.0013,"Cc1cc(Nc2nccc(C(F)F)n2)cc(-c2cnn(C(C)C(C)(O)CO)c2)c1 (single isomer, unassigned) [Example 22.1, 3-(4-(3-((4-(Difluoromethyl)pyrimidin-2-yl)amino)-5-methylphenyl)-1H-pyrazol-1-yl)-2-methylbutane-1,2-diol]"
≤ 0.1,–,"Cc1cc(Nc2nccc(C(F)F)n2)cc(-c2cnn(C(C)C(C)(O)CO)c2)c1 (single isomer, unassigned) [Example 22.2, 3-(4-(3-((4-(Difluoromethyl)pyrimidin-2-yl)amino)-5-methylphenyl)-1H-pyrazol-1-yl)-2-methylbutane-1,2-diol]"
≤ 0.1,0.0012,"Cc1cc(Nc2nccc(C(F)(F)F)n2)cc(-c2cnn(C[C@@H]3OC(=O)N[C@H]3C)c2)c1 (single isomer, unassigned) [Example 23.1]"
≤ 0.1,–,"Cc1cc(Nc2nccc(C(F)(F)F)n2)cc(-c2cnn(CC3OC(=O)NC3C)c2)c1 (single isomer, unassigned) [Example 23.2, 4-methyl-5-{[4-(3-methyl-5-{[4-(trifluoromethyl)pyrimidin-2-yl]amino}phenyl)-1H-pyrazol-1-yl]methyl}-1,3-oxazolidin-2-one]"
≤ 0.1,–,"Cc1cc(Nc2nccc(C(F)(F)F)n2)cc(-c2cnn(CC3OC(=O)NC3C(C)C)c2)c1 (single isomer, unassigned) [Example 23.3, 4-(1-methylethyl)-5-{[4-(3-methyl-5-{[4-(trifluoromethyl)pyrimidin-2-yl]amino}phenyl)-1H-pyrazol-1-yl]methyl}-1,3-oxazolidin-2-one]"
≤ 0.1,–,"Cc1cc(Nc2nccc(C(F)(F)F)n2)cc(-c2cnn(CC3OC(=O)NC3C(C)C)c2)c1 (single isomer, unassigned) [Example 23.4, 4-(1-methylethyl)-5-{[4-(3-methyl-5-{[4-(trifluoromethyl)pyrimidin-2-yl]amino}phenyl)-1H-pyrazol-1-yl]methyl}-1,3-oxazolidin-2-one]"
≤ 0.1,–,"Cc1cc(Nc2nccc(C(F)(F)F)n2)cc(-c2cnn(CC3OC(=O)NC3C(C)C)c2)c1 (single isomer, unassigned) [Example 23.5, 4-(1-methylethyl)-5-{[4-(3-methyl-5-{[4-(trifluoromethyl)pyrimidin-2-yl]amino}phenyl)-1H-pyrazol-1-yl]methyl}-1,3-oxazolidin-2-one]"
